Measurements reported in publication PMC9728238, “Heterologous Expression of Recombinant Transglutaminase in Bacillus subtilis SCK6 with Optimized Signal Peptide and Codon, and Its Impact on Gelatin Properties” (Journal of Microbiology and Biotechnology, 2020).
Where a SMILES comes first, the peptide text is derived from it. The star is where a group is joined. Cbz = O=C(OCc1ccccc1)*

Target: T1, MTG (recombinant microbial transglutaminase, TGase) (Streptomyces sp., UniProt A0A6H0XHW2)
T1 construct: pro-mature gene (1,149 bp) without native signal peptide, codon-optimized, behind B. subtilis YncM signal peptide; secreted by Bacillus subtilis SCK6; purified mature enzyme, 38 kDa; no tag told
T1 sequence (A0A6H0XHW2 80-410): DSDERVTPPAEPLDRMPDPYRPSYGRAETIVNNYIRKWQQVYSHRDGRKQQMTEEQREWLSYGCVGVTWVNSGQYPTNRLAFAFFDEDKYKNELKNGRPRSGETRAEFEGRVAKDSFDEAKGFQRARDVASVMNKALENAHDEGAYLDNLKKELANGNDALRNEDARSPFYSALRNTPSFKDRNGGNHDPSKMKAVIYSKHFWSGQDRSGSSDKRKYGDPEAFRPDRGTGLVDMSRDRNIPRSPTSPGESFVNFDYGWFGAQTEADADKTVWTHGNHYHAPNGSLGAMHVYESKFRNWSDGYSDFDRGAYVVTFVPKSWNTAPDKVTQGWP
Test: hydroxamate assay ([…] nm), Lineweaver-Burk plot
Assay type: biochemical
Settings: CBZ-Gln-Gly 5 to 30 mmol/l; pH 6.0; 37 °C; co-substrate hydroxylamine 100 mM, glutathione 10 mM; unit as printed (presumably μmol/ml)

`NC(=O)CC[C@H](NC(=O)OCc1ccccc1)C(=O)NCC(=O)O` [CBZ-Gln-Gly] (Cbz-Gln-Gly-OH) gave a Km of 16.93 μM/ml.
